According to ChEMBL document CHEMBL3871284, “Structure-activity relationship-based screening of antibiotics against Gram-negative Acinetobacter baumannii” (Bioorg Med Chem, 2017):
Values after ≈ are worked out from the molar mass of the structure shown. Active and inactive are the calls of the source. The rule behind the calls is not given here.

Tests used:
Staphylococcus aureus [1] = assay: Antimicrobial activity against Staphylococcus aureus after 16 hrs by broth microdilution assay; format: functional
[2] = Binding affinity to Acinetobacter baumannii His-tagged KAS3 expressed in Escherichia coli BL21(DE3) by tryptophan emission assay
Escherichia coli [3] = assay: Antimicrobial activity against multidrug resistant Escherichia coli CCARM 1238 after 16 hrs by broth microdilution assay; format: functional; settings: CCARM 1238, 16 h
Escherichia coli [4] = assay: Antimicrobial activity against Escherichia coli KCTC 1682 after 16 hrs by broth microdilution assay; format: functional; settings: KCTC 1682, 16 h
[5] = Antiinflammatory activity in mouse RAW264.7 cells assessed as inhibition of LPS-stimulated IL6 mRNA expression at 10 uM after 3 hrs in presence of LPS by RT-PCR analysis; format: functional; settings: RAW264.7, 3 h
Pseudomonas aeruginosa [6] = assay: Antimicrobial activity against multidrug resistant Pseudomonas aeruginosa CCARM 2163 after 16 hrs by broth microdilution assay; format: functional; settings: CCARM 2163, 16 h
[7] = Antiinflammatory activity in mouse RAW264.7 cells assessed as inhibition of LPS-stimulated MIP1 mRNA expression at 10 uM after 3 hrs in presence of LPS by RT-PCR analysis; format: functional; settings: RAW264.7, 3 h
[8] = Antiinflammatory activity in mouse RAW264.7 cells assessed as inhibition of LPS-stimulated IL1beta mRNA expression at 10 uM after 3 hrs in presence of LPS by RT-PCR analysis; format: functional; settings: RAW264.7, 3 h
Acinetobacter baumannii [9] = assay: Antimicrobial activity against multidrug resistant Acinetobacter baumannii CCARM 12036 after 16 hrs by broth microdilution assay; format: functional; settings: CCARM 12036, 16 h
Pseudomonas aeruginosa [10] = assay: Antimicrobial activity against multidrug resistant Pseudomonas aeruginosa CCARM 2095 after 16 hrs by broth microdilution assay; format: functional; settings: CCARM 2095, 16 h
[11] = Antiinflammatory activity in mouse RAW264.7 cells assessed as inhibition of LPS-stimulated iNOS mRNA expression at 10 uM after 3 hrs in presence of LPS by RT-PCR analysis; format: functional; settings: RAW264.7, 3 h
Acinetobacter baumannii [12] = assay: Antimicrobial activity against Acinetobacter baumannii KCTC 2508 after 16 hrs by broth microdilution assay; format: functional; settings: KCTC 2508, 16 h
[13] = Binding affinity to Acinetobacter baumannii His-tagged KAS3 expressed in Escherichia coli BL21(DE3) by isothermal titration calorimetry assay
Bacillus subtilis = assay: Antimicrobial activity against Bacillus subtilis after 16 hrs by broth microdilution assay; format: functional
Acinetobacter baumannii [14] = assay: Antimicrobial activity against multidrug resistant Acinetobacter baumannii CCARM 12005 after 16 hrs by broth microdilution assay; format: functional; settings: CCARM 12005, 16 h
Staphylococcus aureus [15] = assay: Antimicrobial activity against Methicillin-resistant Staphylococcus aureus isolate 3114 after 16 hrs by broth microdilution assay; format: functional; settings: isolate 3114, 16 h
[16] = test system: Staphylococcus epidermidis; assay: Antimicrobial activity against Staphylococcus epidermidis after 16 hrs by broth microdilution assay; format: functional
Acinetobacter baumannii [17] = assay: Antimicrobial activity against multidrug resistant Acinetobacter baumannii CCARM 12037 after 16 hrs by broth microdilution assay; format: functional; settings: CCARM 12037, 16 h
Acinetobacter baumannii [18] = assay: Antimicrobial activity against multidrug resistant Acinetobacter baumannii CCARM 12035 after 16 hrs by broth microdilution assay; format: functional; settings: CCARM 12035, 16 h
[19] = Antiinflammatory activity in mouse RAW264.7 cells assessed as inhibition of LPS-stimulated TNFalpha mRNA expression at 10 uM after 3 hrs in presence of LPS by RT-PCR analysis; format: functional; settings: RAW264.7, 3 h
[20] = Antiinflammatory activity in mouse RAW264.7 cells assessed as inhibition of LPS-stimulated MIP2 mRNA expression at 10 uM after 3 hrs in presence of LPS by RT-PCR analysis; format: functional; settings: RAW264.7, 3 h
Staphylococcus aureus [21] = assay: Antimicrobial activity against Methicillin-resistant Staphylococcus aureus 3126 after 16 hrs by broth microdilution assay; format: functional; settings: Staphylococcus aureus, 3126, 16 h
RAW264.7 = assay: Antiinflammatory activity in mouse RAW264.7 cells assessed as inhibition of LPS-stimulated NO production at 10 to 20 uM after 24 hrs in presence of LPS; format: functional, cell-based
Escherichia coli [22] = assay: Antimicrobial activity against multidrug resistant Escherichia coli CCARM 1229 after 16 hrs by broth microdilution assay; format: functional; settings: CCARM 1229, 16 h
Pseudomonas aeruginosa [23] = assay: Antimicrobial activity against multidrug resistant Pseudomonas aeruginosa CCARM 2002 after 16 hrs by broth microdilution assay; format: functional; settings: CCARM 2002, 16 h
Pseudomonas aeruginosa [24] = assay: Antimicrobial activity against Pseudomonas aeruginosa KCTC 1637 after 16 hrs by broth microdilution assay; format: functional; settings: KCTC 1637, 16 h

`Oc1ccc(/C=N/NCc2cccc(C(F)(F)F)c2)cc1` gave an MIC (Staphylococcus aureus [1]) of 32 µg/mL (≈ 109 µM), a Kd [2] of 0.22 µM and an MIC (Escherichia coli [3]) of over 32 µg/mL. For the same compound, the MIC (Escherichia coli [4]) was 32 µg/mL (≈ 109 µM), the inhibition at 10 µM [5] was 50.6% and the MIC (Pseudomonas aeruginosa [6]) was over 32 µg/mL. The inhibition at 10 µM [7] was over 70%, the inhibition at 10 µM [8] was 63.5% and the MIC (Acinetobacter baumannii [9]) was 16 µg/mL (≈ 54.4 µM). For the same compound, the MIC (Pseudomonas aeruginosa [10]) was over 32 µg/mL, the inhibition at 10 µM [11] was over 70% and the MIC (Acinetobacter baumannii [12]) was 8 µg/mL (≈ 27.2 µM). For the same compound, the Kd [13] was 0.127 µM, the MIC (Bacillus subtilis) was 32 µg/mL (≈ 109 µM) and the MIC (Acinetobacter baumannii [14]) was 16 µg/mL (≈ 54.4 µM). The MIC (Staphylococcus aureus [15]) was over 32 µg/mL, the MIC [16] was 32 µg/mL (≈ 109 µM) and the MIC (Acinetobacter baumannii [17]) was 16 µg/mL (≈ 54.4 µM). For the same compound, the MIC (Acinetobacter baumannii [18]) was 16 µg/mL (≈ 54.4 µM), the inhibition at 10 µM [19] was over 70% and the inhibition at 10 µM [20] was over 70%. For the same compound, the MIC (Staphylococcus aureus [21]) was over 32 µg/mL, the inhibition (RAW264.7) was “Active” and the MIC (Escherichia coli [22]) was over 32 µg/mL. For the same compound, the MIC (Pseudomonas aeruginosa [23]) was over 32 µg/mL and the MIC (Pseudomonas aeruginosa [24]) was 32 µg/mL (≈ 109 µM).
With `Oc1cccc(Br)c1/C=N/NCc1cccc(C(F)(F)F)c1` the MIC (Staphylococcus aureus [1]) was over 32 µg/mL, the Kd [2] was over 100 µM and the MIC (Escherichia coli [3]) was over 32 µg/mL. It also gave an MIC (Escherichia coli [4]) of over 32 µg/mL, an MIC (Pseudomonas aeruginosa [6]) of over 32 µg/mL and an MIC (Acinetobacter baumannii [9]) of over 32 µg/mL. It also gave an MIC (Pseudomonas aeruginosa [10]) of over 32 µg/mL, an MIC (Acinetobacter baumannii [12]) of over 32 µg/mL and an MIC (Bacillus subtilis) of over 32 µg/mL. It also gave an MIC (Acinetobacter baumannii [14]) of over 32 µg/mL, an MIC (Staphylococcus aureus [15]) of over 32 µg/mL and an MIC [16] of over 32 µg/mL. It also gave an MIC (Acinetobacter baumannii [17]) of over 32 µg/mL, an MIC (Acinetobacter baumannii [18]) of over 32 µg/mL and an MIC (Staphylococcus aureus [21]) of over 32 µg/mL. It also gave an MIC (Escherichia coli [22]) of over 32 µg/mL, an MIC (Pseudomonas aeruginosa [23]) of over 32 µg/mL and an MIC (Pseudomonas aeruginosa [24]) of over 32 µg/mL.
Compound `COc1ccc(/C=N/NCc2ccc(C)cc2)c(O)c1` has an MIC (Staphylococcus aureus [1]) of over 32 µg/mL, a Kd [2] of over 100 µM and an MIC (Escherichia coli [3]) of over 32 µg/mL. For the same compound, the MIC (Escherichia coli [4]) was over 32 µg/mL, the MIC (Pseudomonas aeruginosa [6]) was over 32 µg/mL and the MIC (Acinetobacter baumannii [9]) was over 32 µg/mL. The MIC (Pseudomonas aeruginosa [10]) was over 32 µg/mL, the MIC (Acinetobacter baumannii [12]) was over 32 µg/mL and the MIC (Bacillus subtilis) was over 32 µg/mL. For the same compound, the MIC (Acinetobacter baumannii [14]) was over 32 µg/mL, the MIC (Staphylococcus aureus [15]) was over 32 µg/mL and the MIC [16] was over 32 µg/mL. The MIC (Acinetobacter baumannii [17]) was over 32 µg/mL, the MIC (Acinetobacter baumannii [18]) was over 32 µg/mL and the MIC (Staphylococcus aureus [21]) was over 32 µg/mL. It also gave an MIC (Escherichia coli [22]) of over 32 µg/mL, an MIC (Pseudomonas aeruginosa [23]) of over 32 µg/mL and an MIC (Pseudomonas aeruginosa [24]) of over 32 µg/mL.
Compound `COc1ccc(O)c(/C=N/NCc2cccc(C(F)(F)F)c2)c1` has an MIC (Staphylococcus aureus [1]) of over 32 µg/mL, a Kd [2] of over 100 µM and an MIC (Escherichia coli [3]) of over 32 µg/mL. The MIC (Escherichia coli [4]) was over 32 µg/mL, the MIC (Pseudomonas aeruginosa [6]) was over 32 µg/mL and the MIC (Acinetobacter baumannii [9]) was over 32 µg/mL. For the same compound, the MIC (Pseudomonas aeruginosa [10]) was over 32 µg/mL, the MIC (Acinetobacter baumannii [12]) was over 32 µg/mL and the MIC (Bacillus subtilis) was over 32 µg/mL. It also gave an MIC (Acinetobacter baumannii [14]) of over 32 µg/mL, an MIC (Staphylococcus aureus [15]) of over 32 µg/mL and an MIC [16] of over 32 µg/mL. It also gave an MIC (Acinetobacter baumannii [17]) of over 32 µg/mL, an MIC (Acinetobacter baumannii [18]) of over 32 µg/mL and an MIC (Staphylococcus aureus [21]) of over 32 µg/mL. For the same compound, the MIC (Escherichia coli [22]) was over 32 µg/mL, the MIC (Pseudomonas aeruginosa [23]) was over 32 µg/mL and the MIC (Pseudomonas aeruginosa [24]) was over 32 µg/mL.
In the case of `COc1ccc(/C=N/NCc2ccc(C(=O)O)cc2)c(OC)c1`, the MIC (Staphylococcus aureus [1]) is reported as over 32 µg/mL, the Kd [2] is reported as 72.5 µM and the MIC (Escherichia coli [3]) is reported as over 32 µg/mL. For the same compound, the MIC (Escherichia coli [4]) was over 32 µg/mL, the MIC (Pseudomonas aeruginosa [6]) was over 32 µg/mL and the MIC (Acinetobacter baumannii [9]) was over 32 µg/mL. It also gave an MIC (Pseudomonas aeruginosa [10]) of over 32 µg/mL, an MIC (Acinetobacter baumannii [12]) of over 32 µg/mL and an MIC (Bacillus subtilis) of over 32 µg/mL. For the same compound, the MIC (Acinetobacter baumannii [14]) was over 32 µg/mL, the MIC (Staphylococcus aureus [15]) was over 32 µg/mL and the MIC [16] was over 32 µg/mL. It also gave an MIC (Acinetobacter baumannii [17]) of over 32 µg/mL, an MIC (Acinetobacter baumannii [18]) of over 32 µg/mL and an MIC (Staphylococcus aureus [21]) of over 32 µg/mL. The MIC (Escherichia coli [22]) was over 32 µg/mL, the MIC (Pseudomonas aeruginosa [23]) was over 32 µg/mL and the MIC (Pseudomonas aeruginosa [24]) was over 32 µg/mL.
With `COc1ccccc1/C=N/NCc1ccc(C(=O)O)cc1` the MIC (Staphylococcus aureus [1]) was over 32 µg/mL, the Kd [2] was 20.2 µM and the MIC (Escherichia coli [3]) was over 32 µg/mL. The MIC (Escherichia coli [4]) was over 32 µg/mL, the MIC (Pseudomonas aeruginosa [6]) was over 32 µg/mL and the MIC (Acinetobacter baumannii [9]) was over 32 µg/mL. The MIC (Pseudomonas aeruginosa [10]) was over 32 µg/mL, the MIC (Acinetobacter baumannii [12]) was over 32 µg/mL and the MIC (Bacillus subtilis) was over 32 µg/mL. The MIC (Acinetobacter baumannii [14]) was over 32 µg/mL, the MIC (Staphylococcus aureus [15]) was over 32 µg/mL and the MIC [16] was over 32 µg/mL. It also gave an MIC (Acinetobacter baumannii [17]) of over 32 µg/mL, an MIC (Acinetobacter baumannii [18]) of over 32 µg/mL and an MIC (Staphylococcus aureus [21]) of over 32 µg/mL. For the same compound, the MIC (Escherichia coli [22]) was over 32 µg/mL, the MIC (Pseudomonas aeruginosa [23]) was over 32 µg/mL and the MIC (Pseudomonas aeruginosa [24]) was over 32 µg/mL.
